In patent US20110070232A1, “Combination Therapy with an Antitumor Alkaloid” (Pharma Mar, S.A., priority 2008, published 2011):
Where two headings read alike, the source gives them in different places.

Experiments:
Type in all cases: in vivo, mice
MRI-H-254 tumors = tested on: MRI-H-254 tumors
Method: Female athymic nude mice (Harlan Sprague Dawley, Madison, Wis.) were utilized for all experiments. Animals were housed in ventilated rack caging with food and water ad libitum. The mice were acclimated for at least 5 days prior to tumor implantation with tumor fragments. The Vehicle Control group contained 11 mice, groups 2-6 contained 8 mice/group, and the rest of groups contained 9 mice/group.
This cell line was grown and implanted to the animals as described in Example 11.
Tumor measurements were determined as disclosed in Example 4. […] Treatments were initiated on DPI 17.
PM00104 was provided in the form of vials of lyophilized PM00104 powder which was reconstituted with water for injection.
(§1) Tumor size measurements were recorded twice weekly from the treatment initiation until the termination of the study.
(§2) Mean, standard deviation and standard error of the mean were determined for tumor volume for all animal groups at all assessments. Student's t test was performed on tumor volumes at each measurement day, including at the end of the study, to determine whether there were any statistically significant differences between combination treatment groups and single monotherapy treatment groups.
The definition and criteria for the evaluation of potentiation and the degree of additivity for the combination therapy were the same as those disclose in Example 4.

NCI-H460 tumors = tested on: NCI-H460 tumors
Excerpt: Female athymic nude mice (Harlan Sprague Dawley, Madison, Wis.) were utilized for all experiments. Animals were housed in ventilated rack caging with food and water ad libitum. The mice were acclimated for at least 5 days prior to tumor implantation.
The tumor model used in this study was NCI-H460 cell line which is a human NSCLC cell line obtained from the ATCC (Manassas, Va.). […] Cells from in vitro passage 9 were those implanted SC into study mice.
Treatments were initiated on DPI 8.
Tumor size measurements were recorded 2-3 times/week from the treatment initiation until the termination of the study.
as §2

BxPC-3 tumors = settings: mg/kg/day: PM00104 0.90 IV, gemcitabine 180 IP
Method: Female CB17.SCID mice (Charles River Lab.) were utilized for all experiments. Animals were housed in ventilated rack caging with food and water ad libitum. The mice were acclimated for at least 5 days prior to tumor implantation with a tumor cell suspension.
The tumor model used in these studies was BxPC-3 cell line, which was obtained from the ATCC (Manassas, Va.).
Bacterial cultures were performed on aliquots of the cells prepared for implantation.
Treatments were initiated on DPI 14.
as §1, §2

Hs746T tumors = settings: for % Inhibition: mg/kg/day: PM00104 0.90 IV, 5-FU 50 at DPI 15 and 100 at DPI 22 & 29 IP
Excerpt: Female athymic nude mice (Harlan Sprague Dawley, Madison, Wis.) were utilized for all experiments. Animals were housed in ventilated rack caging with food and water ad libitum. The mice were acclimated for at least 5 days prior to tumor implantation with a tumor cell suspension.
The tumor model used in these studies was Hs746T cell line, which was obtained from the ATCC (Manassas, Va.).
Treatments were initiated on DPI 15.
5-FU was provided as a solution which was further diluted with water for injection.
as §1, §2

[1] = PM00104 0.90 IV, doxorubicin 6 IP, paclitaxel 12.5 IP mg/kg/day (G2, G5, G6, G7, G8)
[2] = Gemcitabine 90 mg/kg/day IP, alone or with PM00104 0.9 mg/kg/day IV
[3] = PM00104 0.9 mg/kg/day IV and/or Gemcitabine 180 mg/kg/day IP
[4] = PM00104 0.9, 5-FU 50 (DPI 15) then 100 (DPI 22 & 29), irinotecan 20, doxorubicin 6 mg/kg/day

With `CC(=O)O[C@H]1C(=O)[C@@]2(C)[C@H]([C@H](OC(=O)c3ccccc3)[C@]3(O)C[C@H](OC(=O)[C@H](O)[C@@H](NC(=O)c4ccccc4)c4ccccc4)C(C)=C1C3(C)C)[C@]1(OC(C)=O)CO[C@@H]1C[C@@H]2O` [paclitaxel] the “% T/C on day 17” value (MRI-H-254 tumors; [1]) was 99.5%, the “% T/C on day 20” value (MRI-H-254 tumors; [1]) was 86.2% and the “% T/C on day 24” value (MRI-H-254 tumors; [1]) was 71.9%. The “% T/C on day 27” value (MRI-H-254 tumors; [1]) was 77.2%, the “% T/C on day 32” value (MRI-H-254 tumors; [1]) was 67.9% and the “% T/C on day 35” value (MRI-H-254 tumors; [1]) was 52.3%. For the same compound, the “% T/C on day 39” value (MRI-H-254 tumors; [1]) was 51.7%, the “% T/C on day 47” value (MRI-H-254 tumors; [1]) was 69.0% and the “% Inhibition” value (MRI-H-254 tumors; day 14, PM00104 0.23, doxorubicin 6, paclitaxel 12.5 mg/kg/day) was 0.5%. For the same compound, the “% Inhibition” value (MRI-H-254 tumors; day 14, PM00104 0.45, doxorubicin 6, paclitaxel 12.5 mg/kg/day) was 0.5%, the “% Inhibition” value (MRI-H-254 tumors; day 14, PM00104 0.90, paclitaxel 12.5 mg/kg/day) was 0.5% and the “% Inhibition” value (MRI-H-254 tumors; day 20, PM00104 0.23, doxorubicin 6, paclitaxel 12.5 mg/kg/day) was 13.8%. For the same compound, the “% Inhibition” value (MRI-H-254 tumors; day 20, PM00104 0.45, doxorubicin 6, paclitaxel 12.5 mg/kg/day) was 13.8%, the “% Inhibition” value (MRI-H-254 tumors; day 20, PM00104 0.90, paclitaxel 12.5 mg/kg/day) was 13.8% and the “% Inhibition” value (MRI-H-254 tumors; day 24, PM00104 0.23, doxorubicin 6, paclitaxel 12.5 mg/kg/day) was 28.1%. The “% Inhibition” value (MRI-H-254 tumors; day 24, PM00104 0.45, doxorubicin 6, paclitaxel 12.5 mg/kg/day) was 28.1%, the “% Inhibition” value (MRI-H-254 tumors; day 24, PM00104 0.90, paclitaxel 12.5 mg/kg/day) was 28.1% and the “% Inhibition” value (MRI-H-254 tumors; day 27, PM00104 0.23, doxorubicin 6, paclitaxel 12.5 mg/kg/day) was 22.8%. For the same compound, the “% Inhibition” value (MRI-H-254 tumors; day 27, PM00104 0.45, doxorubicin 6, paclitaxel 12.5 mg/kg/day) was 22.8%, the “% Inhibition” value (MRI-H-254 tumors; day 27, PM00104 0.90, paclitaxel 12.5 mg/kg/day) was 22.8% and the “% Inhibition” value (MRI-H-254 tumors; day 32, PM00104 0.23, doxorubicin 6, paclitaxel 12.5 mg/kg/day) was 32.1%. For the same compound, the “% Inhibition” value (MRI-H-254 tumors; day 32, PM00104 0.45, doxorubicin 6, paclitaxel 12.5 mg/kg/day) was 32.1%, the “% Inhibition” value (MRI-H-254 tumors; day 32, PM00104 0.90, paclitaxel 12.5 mg/kg/day) was 32.1% and the “% Inhibition” value (MRI-H-254 tumors; day 35, PM00104 0.23, doxorubicin 6, paclitaxel 12.5 mg/kg/day) was 47.7%. For the same compound, the “% Inhibition” value (MRI-H-254 tumors; day 35, PM00104 0.45, doxorubicin 6, paclitaxel 12.5 mg/kg/day) was 47.7%, the “% Inhibition” value (MRI-H-254 tumors; day 35, PM00104 0.90, paclitaxel 12.5 mg/kg/day) was 47.7% and the “% Inhibition” value (MRI-H-254 tumors; day 39, PM00104 0.23, doxorubicin 6, paclitaxel 12.5 mg/kg/day) was 48.3%. The “% Inhibition” value (MRI-H-254 tumors; day 39, PM00104 0.45, doxorubicin 6, paclitaxel 12.5 mg/kg/day) was 48.3%, the “% Inhibition” value (MRI-H-254 tumors; day 39, PM00104 0.90, paclitaxel 12.5 mg/kg/day) was 48.3% and the “% Inhibition” value (MRI-H-254 tumors; day 47, PM00104 0.23, doxorubicin 6, paclitaxel 12.5 mg/kg/day) was 31.0%. For the same compound, the “% Inhibition” value (MRI-H-254 tumors; day 47, PM00104 0.45, doxorubicin 6, paclitaxel 12.5 mg/kg/day) was 31.0% and the “% Inhibition” value (MRI-H-254 tumors; day 47, PM00104 0.90, paclitaxel 12.5 mg/kg/day) was 31.0%.
With `Nc1ccn([C@@H]2O[C@H](CO)[C@@H](O)C2(F)F)c(=O)n1` [Gemcitabine, gemcitabine] the “% T/C on day 8” value (NCI-H460 tumors; [2]) was 108.6%, the “% T/C on day 11” value (NCI-H460 tumors; [2]) was 83.2% and the “% T/C on day 14” value (NCI-H460 tumors; [2]) was 90.2%. The “% T/C on day 18” value (NCI-H460 tumors; [2]) was 65.3%, the “% T/C on day 21” value (NCI-H460 tumors; [2]) was 73.4% and the “% T/C on day 25” value (NCI-H460 tumors; [2]) was 63.2%. For the same compound, the “% T/C on day 28” value (NCI-H460 tumors; [2]) was 76.9%, the “% T/C on day 8” value (NCI-H460 tumors; [3]) was 101.3% and the “% T/C on day 14” value (NCI-H460 tumors; [3]) was 67.5%. The “% T/C on day 18” value (NCI-H460 tumors; [3]) was 52.0%, the “% T/C on day 21” value (NCI-H460 tumors; [3]) was 69.3% and the “% T/C on day 25” value (NCI-H460 tumors; [3]) was 58.7%. For the same compound, the “% T/C on day 28” value (NCI-H460 tumors; [3]) was 56.8%, the “% Inhibition” value (BxPC-3 tumors; day 14) was 3.1% and the “% T/C on day” value (BxPC-3 tumors; day 14) was 96.9%. For the same compound, the “% Inhibition” value (BxPC-3 tumors; day 16) was −44.6%, the “% T/C on day” value (BxPC-3 tumors; day 16) was 144.6% and the “% Inhibition” value (BxPC-3 tumors; day 19) was −15.6%. The “% T/C on day” value (BxPC-3 tumors; day 19) was 115.6%, the “% Inhibition” value (BxPC-3 tumors; day 22) was 25.5% and the “% T/C on day” value (BxPC-3 tumors; day 22) was 74.5%. For the same compound, the “% Inhibition” value (BxPC-3 tumors; day 26) was −6.1%, the “% T/C on day” value (BxPC-3 tumors; day 26) was 106.1% and the “% Inhibition” value (BxPC-3 tumors; day 29) was 20.7%. The “% T/C on day” value (BxPC-3 tumors; day 29) was 79.3%, the “% Inhibition” value (BxPC-3 tumors; day 34) was 31.3% and the “% T/C on day” value (BxPC-3 tumors; day 34) was 68.7%. The “% Inhibition” value (BxPC-3 tumors; day 40) was −33.9% and the “% T/C on day” value (BxPC-3 tumors; day 40) was 133.9%.
In the case of `O=c1[nH]cc(F)c(=O)[nH]1` [5-FU, 5-fluorouracil], the “% T/C on day 15” value (Hs746T tumors; [4]) is reported as 102.3%, the “% T/C on day 19” value (Hs746T tumors; [4]) is reported as 96.4% and the “% T/C on day 22” value (Hs746T tumors; [4]) is reported as 88.0%. The “% T/C on day 26” value (Hs746T tumors; [4]) was 93.4%, the “% T/C on day 29” value (Hs746T tumors; [4]) was 94.5% and the “% T/C on day 33” value (Hs746T tumors; [4]) was 95.3%. The “% Inhibition” value (Hs746T tumors; day 15) was −2.3%, the “% Inhibition” value (Hs746T tumors; day 19) was 3.6% and the “% Inhibition” value (Hs746T tumors; day 22) was 12.0%. For the same compound, the “% Inhibition” value (Hs746T tumors; day 26) was 6.6%, the “% Inhibition” value (Hs746T tumors; day 29) was 5.5% and the “% Inhibition” value (Hs746T tumors; day 33) was 4.7%.
